Reference: US20120202751A1, “METHODS OF MONITORING ENDOPLASMIC RETICULUM (ER) STRESS RESPONSE” (The Board of trustees of the Leland Stanford Junior …, priority 2009, published 2012)

Tests used:
XBP1-Luc construct = assay: XBP1-luc reporter luciferase activity in HT1080 cells; format: cell-based, human; conditions: for UPR reporter activity, XBP1-luc construct: HT1080 cells, luciferase activity measured after 24 hours
Experimental: (§1) FIG. 1 (A) Upper Panel: is a schematic representation of the XBP1-luc reporter construct. Lower panel: is a bar graph of in vitro luciferase activity from different reporter constructs in response to different stresses. HT 1080 cells expressing either a XBP1-luc construct, or an ATF4 or CMV-driven luciferase gene were cultured in 10 μg/ml tunicamycin, glucose depletion, or severe hypoxia (<0.02% O2) for 24 hours to induce ER stress. (B) is a graphical representation of the incidence of breast carcinomas in Tag mice and Tag-Luc double transgenic mice. […] Tumor areas are outlined. Lower panel: are overlays of in vivo bioluminescence on the pictures in the middle panel. (D) is a series of fluorescent micrographs of tissue sections from tumors from Tag-Luc and Tag mice. Frozen sections were stained with antiluciferase and anti-XBP1 (top left two panels), anti-luciferase and anti-BiP (bottom left two panels), anti-luciferase and anti-eIF2α (top right two panels), or the control secondary antibodies (bottom right two panels).
(B) is a bar graph of in vitro XBP1-luc activity in preparations of spontaneous primary tumors from Tag and Tag-Luc mice cultured under normoxic or hypoxic conditions for 48 h. (C) Left panel: are photographs with overlays of in vivo bioluminescence in Tag-Luc mice treated with vehicle or 50 mg/kg DCA (dichloroacetic acid) b.i.d. for 2 days. Bioluminescence was measured after 32 hours. Right panel: is a bar graph of in vivo bioluminescence as shown in the left panel of FIG. 5C and is the average of two experiments. […] Luciferase activity was measured after 24 hours.
The first 208 amino acids of the unspliced human XBP1-1 was amplified by PCR and subcloned into pEGFP-N1 (Clontech, Mountain View, Calif.). This plasmid was subsequently digested with Bam HI and Not Ito remove the EGFP and a PCR-generated firefly luciferase gene was cloned downstream of the XBP1-1 gene such that the luciferase gene was in frame only in the “spliced” reading frame. […]

ATF4-Luc = assay: ATF4-luc UPR reporter luciferase activity in HT1080 cells; format: cell-based, human; conditions: for UPR reporter activity, ATF4-luc construct: luciferase activity measured after 24 hours
Experimental: as §1
(B) is a bar graph of in vitro XBP1-luc activity in preparations of spontaneous primary tumors from Tag and Tag-Luc mice cultured under normoxic or hypoxic conditions for 48 h. (C) Left panel: are photographs with overlays of in vivo bioluminescence in Tag-Luc mice treated with vehicle or 50 mg/kg DCA (dichloroacetic acid) b.i.d. for 2 days. Bioluminescence was measured after 32 hours. Right panel: is a bar graph of in vivo bioluminescence as shown in the left panel of FIG. 5C and is the average of two experiments. (D) is a bar graph of in vitro luciferase activity in HT1080 cells containing CMV, XBP1, or ATF4-luciferase reporters after treatment with 2-DG, DCA, or glucose deprivation. Luciferase activity was measured after 24 hours.
This reporter construct was tested in vitro. The human fibrosarcoma cell line HT1080 was obtained from ATCC (Manassas, Va.). Cells were maintained at 37° C. with 5% CO2 in DMEM supplemented with 10% FBS and 1% penicillin-streptomycin antibiotics. HT1080 cells (FIG. 1A, lower panel) were stably transfected with the XBP1-Luc construct. […]

XBP1-luc activity [1] = assay: In vitro luciferase activity of cultured Hi and Lo primary tumors from Tag-Luc mice; format: cell-based; conditions: primary Tag-Luc tumors after 7-10 days of in vitro culture
Experimental: FIG. 3 (A) is a bar graph of in vitro luciferase activity of primary tumors from Tag-Luc mice with “Hi” or “Lo” in vivo bioluminesence or tumors from Tag mice after 7-10 days of in vitro culture. Luciferase activity was also measured following tunicamycin treatment. (B) Left panels: are photographs of Tag-Luc mice bearing tumors with synchronous Hi (dark outline in the upper panel) and Lo (light outlines) in vivo bioluminescence (overlays, lower panel). Right panels: are photographs, including bioluminescent overlay, of transplanted Hi (dark circle/arrow; upper left flank) and Lo (light circles/arrows) primary tumors from Tag-Luc mice 14 days after subcutaneously transplantation into four separate quadrants on the dorsal surface of syngeneic FVB mice. (C) is a bar graph of in vivo bioluminesence of primary and transplanted Hi and Lo tumors. Results are the average of four independent experiments.
Tumors isolated ex vivo from Tag-Luc transgenic mice had 14.5-fold greater luciferase activity than tumors isolated from control Tag transgenic mice (FIG. 2A, middle panel; p=0.0001; n=16 for Tag mice, n=33 for Tag-Luc mice). […] Luciferase activity was detected on a Monolight 2010 (Analytic Luminescence Laboratory, San Diego, Calif.).

XBP1-luc activity [2] = assay: In vivo bioluminescence of primary tumors in Tag-Luc mice
Experimental: Mice were injected with fluorescently-labeled 2-DG or RGD peptide or dye alone and imaged 24 hours later for in vivo bioluminescence and 2-DG, RGD peptide, and dye uptake. Dark arrows indicate tumors with high in vivo bioluminescence and light arrows indicate tumors with low in vivo bioluminescence. (B) is a plot of 2-DG signal against in vivo bioluminescence for the mice imaged in FIG. 4(A). (C) is a bar graph of in vivo bioluminescence in autochthonous tumors after 24 hours of glucose deprivation. (D) Left panel: are photographs with overlays of in vivo bioluminescence of Tag-Luc mice at 0 and 12 hours after treatment with 2 mg of 2-DG or vehicle i.p. Arrows indicate palpable tumors. […]
(B) is a bar graph of in vitro XBP1-luc activity in preparations of spontaneous primary tumors from Tag and Tag-Luc mice cultured under normoxic or hypoxic conditions for 48 h. […] Bioluminescence was measured after 32 hours. […] Luciferase activity was measured after 24 hours.
In vivo bioluminescence, which corresponds to XBP1-Luc activity, was detected noninvasively using the IVIS imaging system (Caliper LifeSciences, Hopkinton, Mass.). […] Image analysis and quantification was performed using Living Image software (Caliper LifeSciences, Hopkinton, Mass.). All images were analyzed with a binning of 10. […]

| Molecule | luciferase activity, XBP1-Luc cells (XBP1-Luc construct; HT1080 cells stably transfected with XBP1-Luc, 10 μg/ml tunicamycin, 24 hours, compared to CMV-Luc control cells) | ATF4-Luc reporter induction (ATF4-Luc; 10 μg/ml tunicamycin, 24 hours) | XBP1-luc activity in Hi and Lo tumors (XBP1-luc activity [1]) | UPR reporter activity, XBP1-luc construct (XBP1-Luc construct) | UPR reporter activity, ATF4-luc construct (ATF4-Luc) | increase in tumor bioluminescence compared to control mice (XBP1-luc activity [2]; Tag-Luc mice, 2 mg 2-DG i.p., 12 hours, p=0.01) [fold] | increase in bioluminescent signal of primary Tag-Luc tumors (XBP1-luc activity [2]; repeated injections, 50 mg/kg b.i.d. for 2 days, measured after 32 hours) [fold] |
| --- | --- | --- | --- | --- | --- | --- | --- |
| tunicamycin | strongly induced luciferase activity | also induced | increased |  |  |  |  |
| O=CC[C@@H](O)[C@H](O)[C@H](O)CO [Compound 2-DG, 2-deoxy-d-glucose] |  |  |  | did induce UPR reporter activity | did induce UPR reporter activity | 1.78 |  |
| O=C(O)C(Cl)Cl [DCA, dichloroacetic acid] |  |  |  | did not induce UPR reporter activity | did not induce UPR reporter activity |  | 2.0 |
